Results on three compounds are retold here after patent US9326513B2, “Fungicidal compositions” (Syngenta Participations AG, priority 2011, dated 2016).

Test [1] deals with Gaeumannomvces graminis. Description: Gaeumannomvces graminis (take-all of cereals), PDB microtiter plate, visual after 48 hrs. As to conditions: solo; for inhibition at 0.015625 ppm: rate 0.015625 ppm. The class given is cell-based. The source says: In the following Tables ‘Activity (%)’ means the assessed experimental activity (% disease control in this test when compared to untreated control leaf disks under the same conditions, which show extensive disease development) and “P” is the expected value calculated (expected) activity according to the COLBY formula (see above). The column headed ‘S?’ indicates whether or not synergy was observed, with ‘y’ meaning that synergy was observed. Gaeumannomvces graminis (Take-all of Cereals) Mycelial fragments of the fungus from cryogenic storage were directly mixed into nutrient broth (PDB potato dextrose broth). After placing a (DMSO) solution of the test compounds into a microtiter plate (96-well format) the nutrient broth containing the fungal spores was added.

Test [2] has as its system Fusarium graminearum and Fusarium culmorum. Format: in vivo. As to conditions: solo, 200 g a.i./ha; wheat, 1 day preventive, 9 days after application.
Test [3] deals with Puccinia recondita f. sp. tritici. Description: Puccinia recondita f. sp. tritici / wheat / leaf disc preventative (brown rust). Format: in vivo. As to conditions: foliar, compared to untreated control leaf disks, read-out: disease control. The source says: Puccinia recondita f. sp. tritici/Wheat/Leaf Disc Preventative (Brown Rust) Wheat leaf segments cv. Kanzler were placed on agar in multiwell plates (24-well format) and sprayed with the formulated test compound diluted in water. The leaf disks were inoculated with a spore suspension of the fungus 1 day after application.

Test [4] concerns Pyrenophora teres. Description: Pyrenophora teres / barley / leaf disc preventative (net blotch). The class given is in vivo. As to conditions: foliar, compared to untreated control leaf disks, read-out: disease control. The source says: Pyrenophora teres/Barley/Leaf Disc Preventative (Net Blotch) Barley leaf segments cv. Hasso were placed on agar in a multiwell plate (24-well format) and sprayed with the formulated test compound diluted in water. The leaf segments were inoculated with a spore suspension of the fungus 2 days after application.

The test system of test [5] is Pythium ultimum. Description: Pythium ultimum (damping off), PDB microtiter plate, visual after 48 hrs. The class given is cell-based. The conditions noted are these: Globisporangium ultimum, solo.

For `CCN(C)/C=N/c1cc(Br)c(OC2Cc3ccccc3C2)nc1C` [Q.062], in test [1] (rate 0.00390625 ppm), the inhibition at 0.00390625 ppm came out at 0%. Also, in test [1] (rate 0.0078125 ppm), the inhibition at 0.0078125 ppm is 0%. Further, the inhibition at 0.015625 ppm in test [1] turned out to be 0%. In addition, the Activity in test [2] is given as 17%. The pest or weed control at 200 ppm in test [3] and in test [4] was at least 50% in each case.
As to `CCN(C)/C=N/c1cc(Br)c(OC(C)c2cc(F)cc(F)c2)nc1C` (stereo not shown) [Q.113], the inhibition at 0.015625 ppm in test [1] was 0%. In addition, in test [1] (rate 0.03125 ppm), the inhibition at 0.03125 ppm was determined as 0%. In test [1] (rate 0.0625 ppm), the inhibition at 0.0625 ppm worked out at 0%. In test [1] (rate 0.125 ppm), the inhibition at 0.125 ppm turned out to be 0%. In addition, the inhibition at 0.25 ppm in test [1] (rate 0.25 ppm) was found to be 0%. The compound also showed an Activity in test [2] of 23%. For the same compound, the pest or weed control at 200 ppm in test [3] is at least 50%.
In test [5] (rate 0.0078125 ppm), `CCN(C)/C=N/c1cc(Br)c(O[C@H]2CC[C@@H](C(C)C)CC2)nc1C` [Q.135] had an inhibition at 0.0078125 ppm of 0%. Moreover, 0.015625 ppm produced 0% inhibition in test [5] (rate 0.015625 ppm). In addition, in test [5] (rate 0.03125 ppm), the inhibition at 0.03125 ppm was 0%. Besides, at 0.0625 ppm the inhibition in test [5] (rate 0.0625 ppm) was 0%. Further, the Activity in test [2] is on record as 28%. For the same compound, in test [3], the pest or weed control at 200 ppm was at least 50%.

A word on the inhibition: it is the drop in the measured response relative to a control, in per cent.
